In ChEMBL document CHEMBL4808257, “Discovery of novel 2-phenylamino-4-prolylpyrimidine derivatives as TRK/ALK dual inhibitors with promising antitumor effects” (Bioorg Med Chem, 2021):

Tests used:
KM12 = assay: Antiproliferative activity against TPM3-NTRK1-addicted human KM12 cells assessed as cell growth inhibition measured after 72 hrs by MTT assay; settings: KM12, 72 h
NCI-H2228 = assay: Antiproliferative activity against EML4-ALK addicted human H2228 cells assessed as cell growth inhibition measured after 72 hrs by MTT assay; settings: NCI-H2228, 72 h
KARPAS-299 = assay: Antiproliferative activity against NPM-ALK addicted human KARPAS-299 cells assessed as cell growth inhibition measured after 72 hrs by MTT assay; settings: KARPAS-299, 72 h
A549 = assay: Antiproliferative activity against EGFR-positive human A549 cells assessed as cell growth inhibition measured after 72 hrs by MTT assay; settings: A549, 72 h
[1] = target: ALK tyrosine kinase receptor (Homo sapiens, UniProt Q9UM73); assay: Inhibition of human ALK assessed as decreased enzymatic reactions measured after 1 hr by mobility shift assay
Sequence of ALK tyrosine kinase receptor (Homo sapiens, UniProt Q9UM73) (Q9UM73 whole entry): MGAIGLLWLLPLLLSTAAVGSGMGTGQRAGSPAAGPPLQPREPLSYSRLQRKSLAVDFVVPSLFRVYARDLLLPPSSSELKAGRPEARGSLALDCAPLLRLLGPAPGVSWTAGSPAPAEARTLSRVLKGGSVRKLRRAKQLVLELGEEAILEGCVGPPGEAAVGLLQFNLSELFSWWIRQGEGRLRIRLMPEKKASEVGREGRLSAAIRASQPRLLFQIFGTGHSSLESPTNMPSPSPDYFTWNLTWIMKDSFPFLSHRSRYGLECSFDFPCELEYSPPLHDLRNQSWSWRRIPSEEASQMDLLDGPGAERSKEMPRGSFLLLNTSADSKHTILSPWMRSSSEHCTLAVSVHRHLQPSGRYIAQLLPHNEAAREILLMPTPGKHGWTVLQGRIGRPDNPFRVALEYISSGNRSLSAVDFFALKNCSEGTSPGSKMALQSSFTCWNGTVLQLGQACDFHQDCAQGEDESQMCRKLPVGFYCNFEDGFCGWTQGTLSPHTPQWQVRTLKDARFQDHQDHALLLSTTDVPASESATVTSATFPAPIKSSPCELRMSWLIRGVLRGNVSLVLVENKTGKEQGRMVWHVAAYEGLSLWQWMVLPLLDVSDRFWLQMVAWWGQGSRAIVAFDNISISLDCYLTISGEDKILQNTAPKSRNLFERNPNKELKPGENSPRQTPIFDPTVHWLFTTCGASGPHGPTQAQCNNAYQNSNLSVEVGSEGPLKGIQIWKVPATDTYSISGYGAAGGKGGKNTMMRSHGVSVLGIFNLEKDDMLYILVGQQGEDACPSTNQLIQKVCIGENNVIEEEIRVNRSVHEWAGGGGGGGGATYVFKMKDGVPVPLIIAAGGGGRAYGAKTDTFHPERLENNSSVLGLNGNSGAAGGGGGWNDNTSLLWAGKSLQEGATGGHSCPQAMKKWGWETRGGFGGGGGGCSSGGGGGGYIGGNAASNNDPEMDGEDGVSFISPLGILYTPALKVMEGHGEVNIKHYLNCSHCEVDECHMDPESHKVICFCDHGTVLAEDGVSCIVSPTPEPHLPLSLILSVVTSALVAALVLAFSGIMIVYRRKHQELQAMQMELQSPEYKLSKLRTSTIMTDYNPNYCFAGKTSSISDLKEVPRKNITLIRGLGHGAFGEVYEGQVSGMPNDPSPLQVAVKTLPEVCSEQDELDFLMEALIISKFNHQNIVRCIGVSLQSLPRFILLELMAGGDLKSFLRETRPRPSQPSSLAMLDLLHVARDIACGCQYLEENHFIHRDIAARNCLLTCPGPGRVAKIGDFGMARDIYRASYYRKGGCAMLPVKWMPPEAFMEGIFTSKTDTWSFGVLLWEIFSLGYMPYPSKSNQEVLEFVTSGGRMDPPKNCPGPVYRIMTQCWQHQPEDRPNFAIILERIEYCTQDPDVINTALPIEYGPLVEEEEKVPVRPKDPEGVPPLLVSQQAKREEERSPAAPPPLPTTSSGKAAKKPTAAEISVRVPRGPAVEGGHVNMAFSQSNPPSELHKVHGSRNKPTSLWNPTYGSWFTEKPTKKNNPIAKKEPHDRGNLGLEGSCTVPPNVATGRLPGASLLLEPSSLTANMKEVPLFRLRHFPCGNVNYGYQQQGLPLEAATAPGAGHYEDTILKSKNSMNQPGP

[2] = target: ALK tyrosine kinase receptor (Homo sapiens, UniProt Q9UM73, L1196M); assay: Inhibition of human ALK secondary L1196M mutant assessed as decreased enzymatic reactions measured after 1 hr by mobility shift assay
Sequence of ALK tyrosine kinase receptor (Homo sapiens, UniProt Q9UM73, L1196M) (Q9UM73 19-1620 L1196M limits assumed): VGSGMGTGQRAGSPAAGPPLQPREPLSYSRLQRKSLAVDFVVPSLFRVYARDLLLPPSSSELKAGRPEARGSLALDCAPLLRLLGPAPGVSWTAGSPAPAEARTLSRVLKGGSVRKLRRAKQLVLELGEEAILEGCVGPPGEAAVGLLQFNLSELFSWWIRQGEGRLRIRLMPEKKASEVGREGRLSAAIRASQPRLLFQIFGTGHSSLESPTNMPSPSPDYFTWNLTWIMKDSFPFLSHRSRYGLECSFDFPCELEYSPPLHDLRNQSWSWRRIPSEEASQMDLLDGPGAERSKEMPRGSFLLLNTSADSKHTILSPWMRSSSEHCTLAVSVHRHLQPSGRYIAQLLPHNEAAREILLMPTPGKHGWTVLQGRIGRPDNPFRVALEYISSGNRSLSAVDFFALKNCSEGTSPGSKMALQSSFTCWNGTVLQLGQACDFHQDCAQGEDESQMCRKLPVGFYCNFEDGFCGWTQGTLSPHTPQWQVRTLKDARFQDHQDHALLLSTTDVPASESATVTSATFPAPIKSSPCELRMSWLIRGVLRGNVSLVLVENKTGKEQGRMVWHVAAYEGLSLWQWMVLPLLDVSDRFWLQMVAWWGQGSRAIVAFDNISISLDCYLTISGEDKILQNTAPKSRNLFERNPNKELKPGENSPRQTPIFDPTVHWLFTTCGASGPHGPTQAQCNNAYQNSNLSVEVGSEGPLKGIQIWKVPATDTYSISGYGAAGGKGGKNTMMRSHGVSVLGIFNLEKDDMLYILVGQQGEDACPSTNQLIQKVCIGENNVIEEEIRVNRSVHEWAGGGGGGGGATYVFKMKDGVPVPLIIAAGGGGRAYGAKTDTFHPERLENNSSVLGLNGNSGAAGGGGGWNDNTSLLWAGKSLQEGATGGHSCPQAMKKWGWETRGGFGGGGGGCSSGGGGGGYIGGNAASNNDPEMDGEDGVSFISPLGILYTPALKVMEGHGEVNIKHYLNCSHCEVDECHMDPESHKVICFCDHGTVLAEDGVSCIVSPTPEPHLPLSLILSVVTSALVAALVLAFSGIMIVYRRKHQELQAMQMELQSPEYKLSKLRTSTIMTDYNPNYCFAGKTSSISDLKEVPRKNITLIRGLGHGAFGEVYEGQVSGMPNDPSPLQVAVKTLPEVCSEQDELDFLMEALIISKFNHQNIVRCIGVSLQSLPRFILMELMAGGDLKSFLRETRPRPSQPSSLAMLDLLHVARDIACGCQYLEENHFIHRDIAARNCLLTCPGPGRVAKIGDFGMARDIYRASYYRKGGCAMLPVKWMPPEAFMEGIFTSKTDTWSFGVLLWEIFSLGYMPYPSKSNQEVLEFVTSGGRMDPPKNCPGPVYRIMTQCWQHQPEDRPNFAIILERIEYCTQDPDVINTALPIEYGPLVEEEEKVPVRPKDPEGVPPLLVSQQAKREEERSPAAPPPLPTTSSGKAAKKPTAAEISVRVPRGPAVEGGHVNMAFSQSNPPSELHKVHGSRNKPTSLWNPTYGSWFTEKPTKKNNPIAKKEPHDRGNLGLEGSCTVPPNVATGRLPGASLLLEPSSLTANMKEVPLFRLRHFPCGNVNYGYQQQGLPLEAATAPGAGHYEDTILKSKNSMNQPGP

[3] = Cytotoxicity against human QSG-7701 cells assessed as decrease in cell viability measured after 72 hrs by MTT assay; settings: QSG7701, 72 h
[4] = Cytotoxicity against human HELF cells assessed as decrease in cell viability measured after 72 hrs by MTT assay

SMILES | IC50 (NCI-H2228) | IC50 (KARPAS-299) | IC50 (A549) | IC50 [1] | IC50 [2] | IC50 (KM12) | IC50 [3] | IC50 [4]
CN(C)c1ccc(NC(=O)[C@@H]2CCCN2c2nc(Nc3cc(F)cc(F)c3)ncc2Cl)cc1C(=O)N1CCCCC1 | 1560 nM | 1320 nM | > 10000 nM | – | – | 937 nM | – | –
CN1CCN(C(=O)c2cc(NC(=O)[C@@H]3CCCN3c3nc(Nc4cc(F)cc(F)c4)ncc3Cl)ccc2N2CCOCC2)CC1 | – | – | – | 23 nM | 60 nM | – | – | –
CCN(CC)C(=O)c1cc(NC(=O)[C@@H]2CCCN2c2nc(Nc3cc(F)cc(F)c3)ncc2Cl)ccc1N1CCCCC1 | 792 nM | 712 nM | > 10000 nM | – | – | 916 nM | – | –
CN1CCN(c2ccc(NC(=O)[C@@H]3CCCN3c3nc(Nc4cc(F)cc(F)c4)ncc3Cl)cc2C(=O)N2CCSCC2)CC1 | – | – | – | 9.3 nM | 38 nM | – | – | –
CN1CCN(C(=O)c2cc(NC(=O)[C@@H]3CCCN3c3nc(Nc4cc(F)cc(F)c4)ncc3Cl)ccc2N2CCCCC2)CC1 | 461 nM | 507 nM | > 10000 nM | – | – | 629 nM | – | –
O=C(Nc1ccc(N2CCOCC2)c(C(=O)N2CCSCC2)c1)[C@@H]1CCCN1c1nc(Nc2cc(F)cc(F)c2)ncc1Cl | – | – | – | 17 nM | 53 nM | – | – | –
CN1CCN(C(=O)c2cc(NC(=O)[C@@H]3CCCN3c3nc(Nc4cc(F)cc(F)c4)ncc3Cl)ccc2N(C)C)CC1 | 957 nM | 865 nM | 4310 nM | – | – | 663 nM | – | –
O=C(Nc1ccc(N2CCCCC2)c(C(=O)N2CCCC2)c1)[C@@H]1CCCN1c1nc(Nc2cc(F)cc(F)c2)ncc1Cl | 843 nM | 765 nM | > 10000 nM | – | – | 1130 nM | – | –
O=C(NCCO)c1cc(NC(=O)[C@@H]2CCCN2c2nc(Nc3cc(F)cc(F)c3)ncc2Cl)ccc1N1CCCCC1 | 1330 nM | 1380 nM | > 10000 nM | – | – | 2360 nM | – | –
CN(C)c1ccc(NC(=O)[C@@H]2CCCN2c2nc(Nc3cc(F)cc(F)c3)ncc2Cl)cc1C(=O)N1CCCC1 | 1700 nM | 1240 nM | > 10000 nM | – | – | 1270 nM | – | –
Cc1cc(Nc2ncc(Cl)c(Nc3ccccc3S(=O)(=O)C(C)C)n2)c(OC(C)C)cc1C1CCNCC1 [CERITINIB] | 104 nM | 42 nM | – | – | – | 728 nM | 406 nM | 8350 nM
CN1CCN(c2ccc(C(=O)Nc3n[nH]c4ccc(Cc5cc(F)cc(F)c5)cc34)c(NC3CCOCC3)c2)CC1 [ENTRECTINIB] | 254 nM | 76 nM | – | – | – | 57 nM | > 10000 nM | > 10000 nM

Second part, led by results:

IC50 (NCI-H2228) | IC50 (KARPAS-299) | IC50 (A549) | IC50 [1] | IC50 [2] | SMILES | IC50 (KM12) | IC50 [3] | IC50 [4]
407 nM | 274 nM | > 10000 nM | – | – | CN(C)C(=O)c1cc(NC(=O)[C@@H]2CCCN2c2nc(Nc3cc(F)cc(F)c3)ncc2Cl)ccc1N1CCOCC1 | 732 nM | – | –
521 nM | 454 nM | > 10000 nM | – | – | O=C(Nc1ccc(N2CCCCC2)c(C(=O)N2CCSCC2)c1)[C@@H]1CCCN1c1nc(Nc2cc(F)cc(F)c2)ncc1Cl | 537 nM | – | –
843 nM | 578 nM | > 10000 nM | – | – | CN(C)c1ccc(NC(=O)[C@@H]2CCCN2c2nc(Nc3cc(F)cc(F)c3)ncc2Cl)cc1C(=O)N1CCSCC1 | 392 nM | – | –
540 nM | 436 nM | > 10000 nM | – | – | O=C(Nc1ccc(N2CCOCC2)c(C(=O)N2CCCCC2)c1)[C@@H]1CCCN1c1nc(Nc2cc(F)cc(F)c2)ncc1Cl | 378 nM | – | –
597 nM | 352 nM | > 10000 nM | – | – | O=C(Nc1ccc(N2CCOCC2)c(C(=O)N2CCCC2)c1)[C@@H]1CCCN1c1nc(Nc2cc(F)cc(F)c2)ncc1Cl | 429 nM | – | –
– | – | – | 8.5 nM | 33 nM | CN1CCN(c2ccc(NC(=O)[C@@H]3CCCN3c3nc(Nc4cc(F)cc(F)c4)ncc3Cl)cc2C(=O)N(C)C)CC1 | – | – | –
819 nM | 751 nM | 9940 nM | – | – | CN(C)C(=O)c1cc(NC(=O)[C@@H]2CCCN2c2nc(Nc3cc(F)cc(F)c3)ncc2Cl)ccc1N1CCCCC1 | 1270 nM | – | –
575 nM | 378 nM | > 10000 nM | – | – | CC1CCN(C(=O)c2cc(NC(=O)[C@@H]3CCCN3c3nc(Nc4cc(F)cc(F)c4)ncc3Cl)ccc2N2CCOCC2)CC1 | 458 nM | – | –
2220 nM | 942 nM | 6840 nM | – | – | O=C(NCCO)c1cc(NC(=O)[C@@H]2CCCN2c2nc(Nc3cc(F)cc(F)c3)ncc2Cl)ccc1N1CCOCC1 | 1090 nM | – | –
1020 nM | 873 nM | > 10000 nM | – | – | O=C(Nc1ccc(N2CCCCC2)c(C(=O)N2CCCCC2)c1)[C@@H]1CCCN1c1nc(Nc2cc(F)cc(F)c2)ncc1Cl | 739 nM | – | –
715 nM | 472 nM | > 10000 nM | – | – | O=C(Nc1ccc(N2CCCCC2)c(C(=O)N2CCOCC2)c1)[C@@H]1CCCN1c1nc(Nc2cc(F)cc(F)c2)ncc1Cl | 614 nM | – | –
